For experiment [1], the target named is T1, panel of 442 kinases (Homo sapiens, UniProt Q16513).
T1 construct: purchased KINOMEscan
In kind it is binding. The conditions noted are these: Compound Concentration 10 µM. From the text:
(§1) We assessed the selectivity of members of this scaffold using the KINOMEscan methodology across a near comprehensive panel of 442 kinases [[18,27]].

For experiment [2], the target named is T2, panel of 442 kinases (Homo sapiens, UniProt Q9UL54).
T2 construct: purchased KINOMEscan
T2 sequence (Q9UL54 1-1235): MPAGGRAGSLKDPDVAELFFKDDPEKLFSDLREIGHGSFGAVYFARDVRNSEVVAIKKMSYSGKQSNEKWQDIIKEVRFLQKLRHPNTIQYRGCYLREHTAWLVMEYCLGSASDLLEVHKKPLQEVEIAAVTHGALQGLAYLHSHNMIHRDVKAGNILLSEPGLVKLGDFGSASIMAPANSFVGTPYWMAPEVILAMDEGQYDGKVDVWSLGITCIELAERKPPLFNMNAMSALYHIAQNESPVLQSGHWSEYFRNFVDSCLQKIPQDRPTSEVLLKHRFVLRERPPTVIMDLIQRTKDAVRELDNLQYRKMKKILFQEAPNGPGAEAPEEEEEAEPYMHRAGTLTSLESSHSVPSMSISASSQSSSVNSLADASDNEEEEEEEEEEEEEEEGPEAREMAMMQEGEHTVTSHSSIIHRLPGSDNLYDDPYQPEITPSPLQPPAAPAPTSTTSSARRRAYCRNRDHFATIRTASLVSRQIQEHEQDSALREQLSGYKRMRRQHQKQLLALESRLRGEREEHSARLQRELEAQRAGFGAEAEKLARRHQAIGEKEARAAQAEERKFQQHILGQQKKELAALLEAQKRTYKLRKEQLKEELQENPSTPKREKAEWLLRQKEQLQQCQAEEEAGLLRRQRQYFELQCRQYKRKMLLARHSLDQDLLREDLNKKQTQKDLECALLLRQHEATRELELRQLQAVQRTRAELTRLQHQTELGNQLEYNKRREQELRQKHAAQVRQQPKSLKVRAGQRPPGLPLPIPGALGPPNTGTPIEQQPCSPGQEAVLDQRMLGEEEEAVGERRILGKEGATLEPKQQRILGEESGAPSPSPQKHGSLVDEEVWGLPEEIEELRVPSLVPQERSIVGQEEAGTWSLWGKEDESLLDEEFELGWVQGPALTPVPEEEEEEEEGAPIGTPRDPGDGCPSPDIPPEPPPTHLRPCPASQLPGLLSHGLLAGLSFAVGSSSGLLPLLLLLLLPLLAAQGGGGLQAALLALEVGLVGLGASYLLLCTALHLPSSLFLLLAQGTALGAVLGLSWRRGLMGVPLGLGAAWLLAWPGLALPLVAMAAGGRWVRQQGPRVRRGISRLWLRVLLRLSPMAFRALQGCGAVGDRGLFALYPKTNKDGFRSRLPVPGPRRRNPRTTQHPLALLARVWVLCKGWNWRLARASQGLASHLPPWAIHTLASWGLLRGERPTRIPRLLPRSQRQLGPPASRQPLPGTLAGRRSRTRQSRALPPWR
In kind it is binding. The conditions noted are these: kinase TAOK2; compound concentration 10 µM.
Description: as §1

SMILES strings stand for the structures.

T1 sequence (Q16513 whole entry): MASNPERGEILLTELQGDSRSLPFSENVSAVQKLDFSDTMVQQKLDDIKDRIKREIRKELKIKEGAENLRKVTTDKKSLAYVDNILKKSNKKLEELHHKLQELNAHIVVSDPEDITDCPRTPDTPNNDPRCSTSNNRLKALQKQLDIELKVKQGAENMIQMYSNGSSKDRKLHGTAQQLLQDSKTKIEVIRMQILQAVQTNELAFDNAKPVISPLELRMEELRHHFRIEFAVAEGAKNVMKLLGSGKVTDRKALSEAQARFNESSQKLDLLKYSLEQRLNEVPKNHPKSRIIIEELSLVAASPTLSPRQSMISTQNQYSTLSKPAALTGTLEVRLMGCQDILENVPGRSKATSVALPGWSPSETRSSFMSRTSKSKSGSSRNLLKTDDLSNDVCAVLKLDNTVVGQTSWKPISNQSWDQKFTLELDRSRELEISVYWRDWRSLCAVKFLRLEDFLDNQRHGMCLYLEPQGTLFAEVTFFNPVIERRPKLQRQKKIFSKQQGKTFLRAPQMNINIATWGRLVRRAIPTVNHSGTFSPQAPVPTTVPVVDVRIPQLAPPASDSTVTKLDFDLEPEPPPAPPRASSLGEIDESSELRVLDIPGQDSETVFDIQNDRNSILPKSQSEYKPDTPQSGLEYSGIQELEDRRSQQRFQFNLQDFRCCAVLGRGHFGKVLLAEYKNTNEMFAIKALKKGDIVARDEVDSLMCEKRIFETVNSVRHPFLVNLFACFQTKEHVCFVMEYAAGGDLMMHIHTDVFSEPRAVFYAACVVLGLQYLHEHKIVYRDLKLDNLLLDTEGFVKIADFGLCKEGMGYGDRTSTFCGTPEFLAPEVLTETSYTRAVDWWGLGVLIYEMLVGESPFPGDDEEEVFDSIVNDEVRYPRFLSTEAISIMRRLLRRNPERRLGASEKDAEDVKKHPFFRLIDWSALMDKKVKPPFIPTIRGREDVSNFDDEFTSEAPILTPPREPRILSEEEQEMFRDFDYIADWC

For the compound `CCOc1cc(C(=O)N2CCC(N3CCN(C)CC3)CC2)ccc1Nc1ncc2c(n1)N(C1CCCC1)c1ccccc1C(=O)N2C` [Compound 26], the “KINOMEscan: PKN2” value on panel of 442 kinases [1] worked out at 100. Further, the “% Ctrl, TAOK2” value at panel of 442 kinases [2] is given as 78 % Ctrl.

Take `COc1cc(C(=O)N2CCC(N3CCN(C)CC3)CC2)ccc1Nc1ncc2c(n1)N1CCc3cccc(c31)C(=O)N2C` [Compound 24]: the “KINOMEscan: PKN2” value at panel of 442 kinases [1] is 82. The “% Ctrl, TAOK2” value on panel of 442 kinases [2] worked out at 100 % Ctrl.

`COc1cc(C(=O)N2CCC(N3CCN(C)CC3)CC2)ccc1Nc1ncc2c(n1)N(C)c1ccccc1C(=O)N2C` [15 (LRRK2-IN-1)]: at panel of 442 kinases [1], the “KINOMEscan: PKN2” value is on record as 95. Also, the “% Ctrl, TAOK2” value on panel of 442 kinases [2] is 65 % Ctrl.

For the compound `COc1cc(C(=O)N2CCC(N3CCN(C)CC3)CC2)ccc1Nc1ncc2c(n1)N(C1CCCC1)c1ccccc1C(=O)N2C` [Compound 25, 11-cyclopentyl-2-((2-methoxy-4-(4-(4-methylpiperazin-1-yl)piperidine-1-carbonyl)phenyl)amino)-5-methyl-5H-benzo[e]pyrimido[5,4-b][1,4]diazepin-6(11H)-one], at panel of 442 kinases [1], the “KINOMEscan: PKN2” value is listed as 100. For the same compound, the “% Ctrl, TAOK2” value at panel of 442 kinases [2] came to 74 % Ctrl.
